According to patent US5219884A, “Immunosuppressant” (Taito Co., Ltd., priority 1990, dated 1993):
Where two headings read alike, the source gives them in different places.

What was measured:
[1] = tested on: IL2-dependent mouse cell line CTLL-2; test: suppression of IL-2 induced 3H-thymidine incorporation of CTLL-2; assay type: cell-based; details: 72 hrs, second run (control 30168 cpm); for inhibition at 0.1 µg/mL / inhibition at 1 µg/mL: Mus musculus, CTLL-2; for inhibition at 0.1 µg/mL: read-out: Suppression
Description: IL2-dependent mouse cell line CTLL-2 cells were suspended in the RPMI1640 culture medium supplemented with 30% FCS to a concentration of 2×10^5 cells/ml. The suspension (50 μl) and 50 μl of concanavalin A-stimulated rat spleen cell culture supernatants containing IL2 were added to each well of 96-well microculture plates in which 100 μl of the test substance had been placed. After culturing at 37° C. in an atmosphere of 5% carbon dioxide for 20, 44, or 68 hours, 0.5 μCi/well of ^3 H-thymidine was added, and cultured for 4 hours under the same conditions. After termination of the culture, the cells were harvested by a cell harvester, and the radioactivity incorporated into the cells was measured by a liquid scintillation counter.

HL60 = test: in vitro; assay type: cell-based, human
Description: (§1) Cytotoxicity to human tumor cell lines was examined as follows:
(§2) Cells of human cell lines, K562, MOLT4, U937, HL60, KATOIII, KB, PC-6, PC-14 and CCRF-CEM were separately suspended to the concentration of 2×10^5 cells/ml in the RPMI1640 culture medium supplemented with 20% FCS. Fifty μl of this suspension was added to each well of 96-well microculture plates to which 50 μl of the test solution had been added. After culturing at 37° C. in an atmosphere of 5% carbon dioxide for 72 hours, the absorbancy at 550 nm was measured in the same way as the colorimetry using MTT in Experimental Example 1, and the percent suppression was calculated in the same manner as in Experimental Example 14, which was used as the index of cytotoxicity.

PC-14 = test: in vitro; assay type: cell-based, human
Description: as §1, §2

KB = test: in vitro; assay type: cell-based, human
Description: as §1, §2

in vitro = assay type: cell-based, human; details: human, read-out: Suppression
Description: as §1, §2

U937 = test: in vitro; assay type: cell-based, human
Description: as §1, §2

K562 = test: in vitro; assay type: cell-based, human
Description: as §1, §2

CCRF-CEM = test: in vitro; assay type: cell-based, human
Description: as §1, §2

[2] = cytotoxicity to mouse L929 cells; assay type: cell-based; details: mouse, l929 cells, read-out: Suppression
Description: (§3) Cytotoxicity to mouse L929 cells was assayed as follows:
(§4) L929 cells were suspended to the concentration of 1.5×10^5 cells/ml in the F12 culture medium supplemented with 10% FCS. One hundred μl of the suspension was added to each well of 96-well microculture plates, and cultured at 37° C. in an atmosphere of 5% carbon dioxide for 24 hours, to which 100 μl of the test solution was added and cultured for further 48 hours. After the culture, 100 μl of the supernatant was removed and the absorbancy at 550 nm was measured in the same way as the colormetry using MTT in Experimental Example 1. The percent suppression was calculated by the following formula used as the index of cytotoxicity. [formula]

mouse L929 cells = test: cytotoxicity to mouse L929 cells; assay type: cell-based; details: 550 nm
Description: as §3, §4

[3] = cytotoxicity to tumor cell line MOLT4; assay type: cell-based, human; details: human, molt4 cells, read-out: Suppression
Description: as §1, §2

MOLT4 = test: cytotoxicity to tumor cell line MOLT4; assay type: cell-based, human
Description: as §1, §2

CCCCCCC(=O)CCCCCCCCCC(O)C(O)C(N)(CO)C(=O)O (stereo not drawn) [Example 5]
3H-thymidine uptake ([1]; 0.1 μg/ml): 26108 cpm
3H-thymidine uptake ([1]; 1 μg/ml): 1532 cpm
inhibition at 0.1 µg/mL ([1]; 0.1 μg/ml): 13.5%
inhibition at 1 µg/mL ([1]; 1 μg/ml): 95.1%
Absorbancy (HL60; 0.1 μg/ml): 0.593
Absorbancy (HL60; 1.0 μg/ml): 0.657
Absorbancy (HL60; 10.0 μg/ml): 0.590
Absorbancy (PC-14; 0.1 μg/ml): 0.420
Absorbancy (PC-14; 1.0 μg/ml): 0.396
Absorbancy (PC-14; 10.0 μg/ml): 0.352
Absorbancy (KB; 0.1 μg/ml): 0.761
Absorbancy (KB; 1.0 μg/ml): 0.734
Absorbancy (KB; 10.0 μg/ml): 0.711
cytotoxicity at 72 h (in vitro; ccrf-cem cells, 0.1 μg/ml): 3.6%
cytotoxicity at 72 h (in vitro; ccrf-cem cells, 1.0 μg/ml): 7.4%
cytotoxicity at 72 h (in vitro; ccrf-cem cells, 10.0 μg/ml): 21.7%
cytotoxicity at 72 h (in vitro; hl60 cells, 0.1 μg/ml): 20.5%
cytotoxicity at 72 h (in vitro; hl60 cells, 1.0 μg/ml): 11.9%
cytotoxicity at 72 h (in vitro; hl60 cells, 10.0 μg/ml): 20.9%
cytotoxicity at 72 h (in vitro; k562 cells, 0.1 μg/ml): 1.6%
cytotoxicity at 72 h (in vitro; k562 cells, 1.0 μg/ml): 3.1%
cytotoxicity at 72 h (in vitro; k562 cells, 10.0 μg/ml): 6.7%
cytotoxicity at 72 h (in vitro; kb cells, 0.1 μg/ml): 0%
cytotoxicity at 72 h (in vitro; kb cells, 1.0 μg/ml): 0%
cytotoxicity at 72 h (in vitro; kb cells, 10.0 μg/ml): 2.6%
cytotoxicity at 72 h (in vitro; pc-14 cells, 0.1 μg/ml): 11.4%
cytotoxicity at 72 h (in vitro; pc-14 cells, 1.0 μg/ml): 16.5%
cytotoxicity at 72 h (in vitro; pc-14 cells, 10.0 μg/ml): 25.7%
cytotoxicity at 72 h (in vitro; u937 cells, 0.1 μg/ml): 4.5%
cytotoxicity at 72 h (in vitro; u937 cells, 1.0 μg/ml): 0%
Absorbancy (U937; 0.1 μg/ml): 0.462
Absorbancy (U937; 1.0 μg/ml): 0.485
Absorbancy (K562; 0.1 μg/ml): 0.823
Absorbancy (K562; 1.0 μg/ml): 0.810
Absorbancy (K562; 10.0 μg/ml): 0.780
Absorbancy (CCRF-CEM; 0.1 μg/ml): 0.485
Absorbancy (CCRF-CEM; 1.0 μg/ml): 0.466
Absorbancy (CCRF-CEM; 10.0 μg/ml): 0.394
cytotoxicity at 48 h ([2]; 0.1 μg/ml): 0%
cytotoxicity at 48 h ([2]; 1 μg/ml): 0%
cytotoxicity at 48 h ([2]; 10 μg/ml): 0%
Absorbancy (mouse L929 cells; 0.1 μg/ml): 0.775
Absorbancy (mouse L929 cells; 1 μg/ml): 0.805
Absorbancy (mouse L929 cells; 10 μg/ml): 0.749
cytotoxicity at 72 h ([3]; 0.1 μg/ml): 4.7%
cytotoxicity at 72 h ([3]; 1.0 μg/ml): 5.2%
cytotoxicity at 72 h ([3]; 10.0 μg/ml): 18.1%
Absorbancy (MOLT4; 0.1 μg/ml): 0.591
Absorbancy (MOLT4; 1.0 μg/ml): 0.588
Absorbancy (MOLT4; 10.0 μg/ml): 0.508

CCCCCCC(=O)CCCCCCCCCC1OC(=O)C(N)(CO)C1O (stereo not drawn) [Example 7]
3H-thymidine uptake ([1]; 0.1 μg/ml): 37960 cpm
3H-thymidine uptake ([1]; 1 μg/ml): 2088 cpm
inhibition at 0.1 µg/mL ([1]; 0.1 μg/ml): 0%
inhibition at 1 µg/mL ([1]; 1 μg/ml): 93.3%
Absorbancy (HL60; 0.1 μg/ml): 0.432
Absorbancy (HL60; 1.0 μg/ml): 0.427
Absorbancy (HL60; 10.0 μg/ml): 0.428
Absorbancy (PC-14; 0.1 μg/ml): 0.446
Absorbancy (PC-14; 1.0 μg/ml): 0.424
Absorbancy (PC-14; 10.0 μg/ml): 0.315
Absorbancy (KB; 0.1 μg/ml): 0.726
Absorbancy (KB; 1.0 μg/ml): 0.695
Absorbancy (KB; 10.0 μg/ml): 0.493
cytotoxicity at 72 h (in vitro; ccrf-cem cells, 0.1 μg/ml): 1.6%
cytotoxicity at 72 h (in vitro; ccrf-cem cells, 1.0 μg/ml): 5.6%
cytotoxicity at 72 h (in vitro; ccrf-cem cells, 10.0 μg/ml): 15.2%
cytotoxicity at 72 h (in vitro; hl60 cells, 0.1 μg/ml): 17.2%
cytotoxicity at 72 h (in vitro; hl60 cells, 1.0 μg/ml): 18.2%
cytotoxicity at 72 h (in vitro; hl60 cells, 10.0 μg/ml): 18%
cytotoxicity at 72 h (in vitro; k562 cells, 0.1 μg/ml): 0%
cytotoxicity at 72 h (in vitro; k562 cells, 1.0 μg/ml): 13.8%
cytotoxicity at 72 h (in vitro; k562 cells, 10.0 μg/ml): 21.6%
cytotoxicity at 72 h (in vitro; kb cells, 0.1 μg/ml): 0.5%
cytotoxicity at 72 h (in vitro; kb cells, 1.0 μg/ml): 4.8%
cytotoxicity at 72 h (in vitro; kb cells, 10.0 μg/ml): 32.5%
cytotoxicity at 72 h (in vitro; pc-14 cells, 0.1 μg/ml): 5.9%
cytotoxicity at 72 h (in vitro; pc-14 cells, 1.0 μg/ml): 10.5%
cytotoxicity at 72 h (in vitro; pc-14 cells, 10.0 μg/ml): 33.5%
cytotoxicity at 72 h (in vitro; u937 cells, 0.1 μg/ml): 0%
cytotoxicity at 72 h (in vitro; u937 cells, 1.0 μg/ml): 0%
cytotoxicity at 72 h (in vitro; u937 cells, 10.0 μg/ml): 5.5%
Absorbancy (U937; 0.1 μg/ml): 0.588
Absorbancy (U937; 1.0 μg/ml): 0.593
Absorbancy (U937; 10.0 μg/ml): 0.551
Absorbancy (K562; 0.1 μg/ml): 0.387
Absorbancy (K562; 1.0 μg/ml): 0.332
Absorbancy (K562; 10.0 μg/ml): 0.302
Absorbancy (CCRF-CEM; 0.1 μg/ml): 0.681
Absorbancy (CCRF-CEM; 1.0 μg/ml): 0.653
Absorbancy (CCRF-CEM; 10.0 μg/ml): 0.587
cytotoxicity at 48 h ([2]; 0.1 μg/ml): 0%
cytotoxicity at 48 h ([2]; 1 μg/ml): 0%
cytotoxicity at 48 h ([2]; 10 μg/ml): 0%
Absorbancy (mouse L929 cells; 0.1 μg/ml): 0.799
Absorbancy (mouse L929 cells; 1 μg/ml): 0.811
Absorbancy (mouse L929 cells; 10 μg/ml): 0.696
cytotoxicity at 72 h ([3]; 0.1 μg/ml): 26.2%
cytotoxicity at 72 h ([3]; 1.0 μg/ml): 15.2%
cytotoxicity at 72 h ([3]; 10.0 μg/ml): 31%
Absorbancy (MOLT4; 0.1 μg/ml): 0.107
Absorbancy (MOLT4; 1.0 μg/ml): 0.123
Absorbancy (MOLT4; 10.0 μg/ml): 0.100
